Tests used:
[1] = tested on: Sprague Dawley rats; assay: Morris water maze test (escape time to hidden platform); assay type: in vivo
Experimental: In the Morris water maze test, each of the test animals was given four swimming trials per session per day for 4-5 days. When the escape latency of the test animal, that is, the time for the test animal to reach a hidden platform 2 cm below the surface of water, was shortened to about 10±2 seconds during the repeat of the learning sessions, a probe test was performed after 24 hours one time for 60 seconds without the platform.
In the present invention, the effect of formulated drugs on the improvement of learning and memory for spatial recognition of a normal test animal group (Sprague Dawley rats) was tested by administering the drugs to the test animals orally or through drinking water for 2, 3 or 4 weeks and performing a Morris water maze test at 2, 3 or 4 weeks after the drug administration.
(§1) In the Morris water maze test, each of the test animals was given four swimming trials per session per day for 4-5 days. When the escape latency of the test animal, that is, the time for the test animal to reach a hidden platform 2 cm below the surface of water, became shorter than 10±2 seconds during the repeat of the learning sessions, a probe test was performed after 24 hours one time for 60 seconds without the platform. The probe test was performed by removing the platform from the swimming pool and observing the swimming behavior of the test animals. In the probe test, as measures of spatial working memory, the retention time and movement distance of the test animals in the same area of a quadrant region including the position in which the platform was present during the first learning period were analyzed and compared with those of the control group.
Starting from 4 weeks of the administration, a Morris water maze test was performed at a given time point daily four times per day for 4 days to analyze the effect of each composition on the improvement of learning and memory for spatial recognition function of the test animals. As the test results are shown in FIG. 1(a) showing the escape time of each group.

[2] = tested on: Sprague Dawley rats; assay: probe test after Morris water maze learning (platform removed); assay type: in vivo
Experimental: as §1
At 5 days, that is, after 24 hours when the escape time for the learned test animals to reach the platform became an average of 10±2 seconds, the platform was removed and a probe test was performed one time. The test results are shown in FIG. 1(b) to analyze an improvement in learning and memory for spatial recognition functions.

[3] = tested on: cerebral cortex; conditions: normal persons; Saarma J. et al. 1975; cited from earlier work
[4] = administered for 1 week; Jpn J Psychiatry Neurol 1991; cited from earlier work
[5] = tested on: ischemia-induced brain; conditions: administered after hypoxia; Ann. Thorac. Surg. 1994; cited from earlier work
[6] = fumaric acid 100 mg/kg with Tween80 100 mg/kg (FA100Tw100 group), drinking water 4 weeks, vs Tw50 control

Question: For `O=C(O)CCC(=O)O` [succinic acid], which “learning ability in the Morris water maze test” value ([1]; succinic acid 100 mg/kg with Span80 200 mg/kg (SA100Sp200 group), drinking water 3 weeks, session 4, P<0.001 vs DW control, Mann Whitney U test) is on record?
Answer: significant increase in learning ability

Question: And the “working memory in the probe test” value ([2]; succinic acid 100 mg/kg with Span80 200 mg/kg (SA100Sp200 group), drinking water 3 weeks, vs DW control)?
Answer: insignificant (P=0.089) improvement in working memory

Question: Which “excitability of the cerebral cortex” value [3] does the source give for `O=C(O)CCC(=O)O` [SS, sodium succinate] here?
Answer: stabilizes the excitability of the cerebral cortex

Question: Which “excitability of the cerebral cortex” value [3] does the source give for `O=CCCC(=O)O` [SSA, succinic semialdehyde, reference compound] here?
Answer: enhances the excitability of the cerebral cortex

Question: With `CN(C)CCCN1c2ccccc2CCc2ccccc21` [imipramine] as the compound, how does the antidepressant effect [4] read?
Answer: significant antidepressant effect

Question: With `O=C(O)/C=C/C(=O)O` [fumaric acid] as the compound, how does the “improvement of learning (escape time)” value [1, 6] read?
Answer: significant (p<0.05) effect on the improvement of both learning and working memory

Question: And the “effect on the improvement of learning and memory” value ([1]; fumaric acid given with Tween80 (FA50Tw50, FA100Tw100 groups) through drinking water 4 weeks, vs Tw50 control)?
Answer: dose-dependent effect on the improvement of learning and memory

Question: And the “improvement of working memory” value [2, 6]?
Answer: significant (p<0.05) effect on the improvement of both learning and working memory

Question: And the nerve protective effect [5]?
Answer: nerve protective effects

From patent US20090047369A1, “Composition Comprising 4-Carbon Dicarboxlic Acids for Improvement of Memory Function” (Eubioslab Co., Ltd, priority 2006, published 2009)
